Where two headings read alike, the source gives them in different places.
How the values were obtained:
allodynia in CCI mice = conditions: for effect on allodynia (hindpaw absolute threshold): male CCI mice, i.v. injection day 10 post surgery, identical ipsilateral and contralateral
Method: The current report analyzed adult (10-16 week old) male C57BL/6 mice (wildtype; FFID: IMSR_JAX:000664) purchased from Jackson Laboratories (Bar Harbor, Me., USA). Mice were maintained on a standard 12:12 light/dark cycle (lights on from 0600 hours to 1800 hours) in a temperature controlled environment (23°±2° C.) for the duration of the study. Additionally, mice were housed in groups of 4-5 mice/cage, of which all mice were routinely monitored by the animal care staff under the direction of the institutional veterinarian, fed standard rodent chow and water ad libitum, with cages and bedding changed every 7 days. All procedures were approved by the Institutional Animal Care and Use Committee (IACUC) of the University of New Mexico Health Sciences Center, conducted in accordance to the NIH Guidelines for the Care and Use of Laboratory Animals, and closely adhered to guidelines from the International Association for the Study of Pain for the use of animals in research (Foundation for Biomedical Research, The Biomedical Investigator's Handbook for Researchers Using Animal Models. Washington, D.C.: FBR, 1987. WWW: http://www.fbresearch.org/).
This study utilized a modified version of a well-established rat peripheral nerve injury model in which pathological sensitivity to light touch, clinically termed allodynia, is induced through a chronic constriction injury (CCI) (Bennett and Xie 1988). […] Under isoflurane anesthesia (1.5-2.0% volume in oxygen, 2.0 l/min), the dorsal left thigh was shaved and cleaned using 70% Ethanol (EtOH) that was air dried prior to surgery. Utilizing a small incision over the posterior thigh, remaining […] below the femur bone, from hip bone to the patella, the muscle fascia of the mouse was exposed. Using aseptic procedures, a blunt dissection was performed to carefully isolate the sciatic nerve by separating the overlying muscular fascia. Sterile plastic probes were then used to locate and lift the sciatic nerve from its pocket within the muscle tissue. Mice were then subjected to unilateral loose ligation of the sciatic nerve with three 5-0 chromic gut sutures (Ethicon; Somerville, N.J., Cat #634G) which were snugly tied around the sciatic nerve (avoiding pinching) proximal to the trifurcation with 1.5 mm spacing between sutures. Throughout the duration of the surgery, sterile 0.9% isotonic saline (Hospira; Cat #NDC 0409-4888-03) was irrigated over the sciatic nerve to prevent dehydration. Sham surgery followed the same CCI surgical procedure identically but without ligation. Upon ligation, the sciatic nerve was gently placed back into its correct anatomical position using the sterile plastic probes, and the overlying muscle fascia was stitched closed using one 4-0 sterile silk sutures (Ethicon; Somerville, N.J., Cat #83G). Wound clips (Kent Scientific Corp.; Cat #INS750344) were then utilized to seal the incision closed at which point the surgical procedure was complete. […] Body weight was monitored prior to and after surgery.
Upon a 7-14 day acclimation to the testing environment, mice were subjected to a habituation period. The habituation period included placing the mice atop a testing rack within the first 4 hours of the light cycle (lights on from 0600 hours to 1800 hours) in a sound and temperature (23°±2° C.) controlled environment, allowing full access to the plantar hindpaw. Mice were exposed to four separate habitation periods for approximately 45 min/day.

[1] = tested on: TLR4-mediated IL-1β release in THP-1 cells; conditions: for IL-1β release in the presence of LPS stimulation / basal cellular levels of IL-1β: THP-1 cells; for basal cellular levels of IL-1β: pramipexole alone, no LPS
Method: The assay was performed according to the manufacturer's instructions.

[2] = CCI mice, i.v. day 10 post surgery

CCCN[C@H]1CCc2nc(N)sc2C1 [Pramipexole, (6S)-6-N-propyl-4,5,6,7-tetrahydro-1,3-benzothiazole-2,6-diamine]
efficacy on hindpaw withdraw thresholds, hours 24-72 post-injection (allodynia in CCI mice; CCI mice, i.v. 0.5 μg): complete dissipation in the efficacy | time post-injection by which mice returned to allodynia (allodynia in CCI mice; CCI mice, i.v. 0.5 μg): ≤ 24 h | time to complete reversal from allodynia (allodynia in CCI mice; CCI mice, i.v. 0.5 μg, day 10 post-surgery): ≤ 2 h | efficacy on hindpaw withdraw thresholds, hours 24-72 post-injection (allodynia in CCI mice; CCI mice, i.v. 5 μg): complete dissipation in the efficacy | time post-injection by which mice returned to allodynia (allodynia in CCI mice; CCI mice, i.v. 5 μg): ≤ 24 h | time to complete reversal from allodynia (allodynia in CCI mice; CCI mice, i.v. 5 μg, day 10 post-surgery): ≤ 2 h | duration of efficacy (allodynia in CCI mice; [2]): up to 2 hours | time of maximal efficacy post-injection (allodynia in CCI mice; [2]): 2 h | time to complete reversal from allodynia (allodynia in CCI mice; CCI mice, i.v. day 10 post surgery, dose not given in FIG. 1 legend): ≤ 1 h | effect on allodynia (hindpaw absolute threshold) (allodynia in CCI mice): completely reversed from allodynia | effect on allodynia (hindpaw absolute threshold) (allodynia in CCI mice; listed as pramipexole): completely abolishes allodynia | IL-1β release in the presence of LPS stimulation ([1]; 5 pg pramipexole plus LPS): significantly blunts | IL-1β release in the presence of LPS stimulation ([1]; 500 pg pramipexole plus LPS): significantly blunts | basal cellular levels of IL-1β ([1]; 5 pg): does not significantly alter | basal cellular levels of IL-1β ([1]; 500 pg): does not significantly alter | TLR4-IL-1b activation pathway ([1]; cell-based assay using human THP-1 cells): inhibits the TLR4-IL-1b activation pathway

Reference: patent US20200121651A1, “Pramipexole for Use in the Treatment of Pain” (STC.UNM, priority 2018, published 2020)
